Measurements taken from publication PMC10689823, “Discovery of a Drug-like, Natural Product-Inspired DCAF11 Ligand Chemotype” (Nature Communications, 2023).

Biological target: BRD4S-TagBFP reporter (Homo sapiens, UniProt O60885)
Assay: FACS-based CRISPR/Cas9 BRD4 protein stability screen
Conditions: Mageck_Gene level
Protocol: The virus containing supernatant was cleared of cellular debris by filtration through a 0.45-µm PES filter and used to transduce KBM7 BRD4-BFP reporter cells harboring a doxycycline inducible Cas9 allele at a multiplicity of infection (MOI) of 0.05 and 1,000-fold library representation. Library-transduced cells were selected with G418 (1 mg ml^−1, Gibco) for 14 days, expanded and Cas9 expression was induced with DOX (0.4 µg ml^−1, PanReac AppliChem).
Cells were washed with and stored in FACS buffer (PBS containing 5% FBS and 1 mM EDTA) at 4 °C overnight. The next day, cells were strained trough a 35 µm nylon mesh and sorted on a BD FACSAria™ Fusion (BD Biosciences) using a 85 µm nozzle. Aggregates, dead (ZombieNIR positive), Cas9-negative (GFP) and sgRNA library-negative (Thy1.1-APC) cells were excluded, and the remaining cells were sorted based on their BRD4-BFP and mCherry levels into BRD4^HIGH (10% of cells), BRD4^MID (30%) and BRD4^LOW (10%) fractions. For each sample, cells corresponding to at least 2,000-fold library representation were sorted per replicate.
Next-generation sequencing (NGS) libraries of sorted cell fractions were prepared as previously described[25]. In brief, genomic DNA was isolated by cell lysis (10 mM Tris-HCl, 150 mM NaCl, 10 mM EDTA, 0.1% SDS), proteinase K treatment (New England Biolabs) and DNAse-free RNAse digest (Thermo Fisher Scientific), followed by two rounds of phenol extraction and 2-propanol precipitation. Isolated genomic DNA was subjected to several freeze–thaw cycles before nested polymerase chain reaction (PCR) amplification of the sgRNA cassette.
Barcoded NGS libraries for each sorted population were generated using a two-step PCR protocol using AmpliTaq Gold (Invitrogen). The resulting PCR products were purified using Mag-Bind® TotalPure NGS beads (Omega Bio-tek) and amplified in a second PCR introducing the standard Illumina adapters. The final Illumina libraries were bead-purified, pooled and sequenced on a HiSeq 3500 platform (Illumina).
Screen analysis was performed as previously described[25]. Briefly, sequencing reads were quantified using the crispr-process-nf Nextflow workflow, available at https://github.com/ZuberLab/crispr-process-nf/tree/566f6d46bbcc2a3f49f51bbc96b9820f408ec4a3. For statistical analysis, we used the crispr-mageck-nf Nextflow workflow, available at https://github.com/ZuberLab/crispr-mageck-nf/tree/c75a90f670698bfa78bfd8be786d6e5d6d4fc455. To calculate gene-level enrichment, the sorted populations (BRD4^HIGH or BRD4^LOW) were compared to the BRD4^MID populations in MAGeCK (0.5.9)[46], using median normalized read counts.

`Cc1sc2c(c1C)C(c1ccc(Cl)cc1)=N[C@@H](CC(=O)NCCOCCOCCOCCOCCNC(=O)COc1c(Br)cc(/C=C3\C(=O)Nc4ccc(Br)cc43)cc1Br)c1nnc(C)n1-2` [Compound 9] showed a High_lfc (Gene DCAF1) of -0.04, a High_logP (Gene DCAF1) of 0.22 and a Low_lfc (Gene DCAF1) of 0.71. For the same compound, the Low_logP (Gene DCAF1) was 1.93, the High_lfc (Gene DCAF4) was -0.33 and the High_logP (Gene DCAF4) was 0.01. For the same compound, the Low_lfc (Gene DCAF4) was -0.08, the Low_logP (Gene DCAF4) was 0.63 and the High_lfc (Gene DCAF5) was -0.12. It also gave a High_logP (Gene DCAF5) of 0.13, a Low_lfc (Gene DCAF5) of 0.4 and a Low_logP (Gene DCAF5) of 1.39. For the same compound, the High_lfc (Gene DCAF6) was 0.1, the High_logP (Gene DCAF6) was 0.11 and the Low_lfc (Gene DCAF6) was 0.51. It also gave a Low_logP (Gene DCAF6) of 1.55, a High_lfc (Gene DCAF7) of -0.09 and a High_logP (Gene DCAF7) of 0.04. It also gave a Low_lfc (Gene DCAF7) of 0.11, a Low_logP (Gene DCAF7) of 0.24 and a High_lfc (Gene DCAF8) of -0.19. It also gave a High_logP (Gene DCAF8) of 0.14, a Low_lfc (Gene DCAF8) of 0.08 and a Low_logP (Gene DCAF8) of 0.18. The High_lfc (Gene DCAF12) was 0.07, the High_logP (Gene DCAF12) was 0.29 and the Low_lfc (Gene DCAF12) was -0.16. It also gave a Low_logP (Gene DCAF12) of 0.06, a High_lfc (Gene DCAF13) of -0.33 and a High_logP (Gene DCAF13) of 0.07. For the same compound, the Low_lfc (Gene DCAF13) was -0.3, the Low_logP (Gene DCAF13) was 0.33 and the High_lfc (Gene DCAF15) was -0.01. It also gave a High_logP (Gene DCAF15) of 0.12, a Low_lfc (Gene DCAF15) of 0.32 and a Low_logP (Gene DCAF15) of 0.83. The High_lfc (Gene DCAF16) was 0.71, the High_logP (Gene DCAF16) was 2.61 and the Low_lfc (Gene DCAF16) was -0.66. For the same compound, the Low_logP (Gene DCAF16) was 0.04, the High_lfc (Gene DCAF17) was 0.07 and the High_logP (Gene DCAF17) was 0.17. It also gave a Low_lfc (Gene DCAF17) of -0.16, a Low_logP (Gene DCAF17) of 0.07 and a High_lfc (Gene DCUN1D1) of 0.27. It also gave a High_logP (Gene DCUN1D1) of 1.62, a Low_lfc (Gene DCUN1D1) of -0.11 and a Low_logP (Gene DCUN1D1) of 0.82. It also gave a High_lfc (Gene DCUN1D2) of -0.24, a High_logP (Gene DCUN1D2) of 0 and a Low_lfc (Gene DCUN1D2) of 0.46. The Low_logP (Gene DCUN1D2) was 1.57, the High_lfc (Gene DCUN1D3) was 0.07 and the High_logP (Gene DCUN1D3) was 0.22. The Low_lfc (Gene DCUN1D3) was 0.29, the Low_logP (Gene DCUN1D3) was 0.82 and the High_lfc (Gene DCUN1D4) was -0.09. For the same compound, the High_logP (Gene DCUN1D4) was 0.04, the Low_lfc (Gene DCUN1D4) was -0.2 and the Low_logP (Gene DCUN1D4) was 0.05. It also gave a High_lfc (Gene DCUN1D5) of 0.69, a High_logP (Gene DCUN1D5) of 2.79 and a Low_lfc (Gene DCUN1D5) of -0.49. It also gave a Low_logP (Gene DCUN1D5) of 0, a High_lfc (Gene DDA1) of 0.43 and a High_logP (Gene DDA1) of 1.02. It also gave a Low_lfc (Gene DDA1) of -0.23, a Low_logP (Gene DDA1) of 0.16 and a High_lfc (Gene DDB1) of 2.03. For the same compound, the Low_lfc (Gene DDB1) was 0.4, the Low_logP (Gene DDB1) was 0.83 and the High_lfc (Gene DDB2) was 0.02. For the same compound, the High_logP (Gene DDB2) was 0.06, the Low_lfc (Gene DDB2) was 0.07 and the Low_logP (Gene DDB2) was 0.53. It also gave a High_lfc (Gene DET1) of -0.36, a High_logP (Gene DET1) of 0.06 and a Low_lfc (Gene DET1) of -0.27. For the same compound, the Low_logP (Gene DET1) was 0.06, the High_lfc (Gene DHX15) was 0.66 and the Low_lfc (Gene DHX15) was 0.13. For the same compound, the Low_logP (Gene DHX15) was 0.31, the High_lfc (Gene DTL) was -0.25 and the High_logP (Gene DTL) was 0.1. It also gave a Low_lfc (Gene DTL) of 0.46, a Low_logP (Gene DTL) of 1.87 and a High_lfc (Gene ECT2L) of -0.03. The High_logP (Gene ECT2L) was 0.31, the Low_lfc (Gene ECT2L) was -0.31 and the Low_logP (Gene ECT2L) was 0.2. The High_lfc (Gene EED) was 0.01, the High_logP (Gene EED) was 0.06 and the Low_lfc (Gene EED) was -0.55. The Low_logP (Gene EED) was 0.01, the High_lfc (Gene EIF4A1) was -0.26 and the High_logP (Gene EIF4A1) was 0.15. The Low_lfc (Gene EIF4A1) was -0.34, the Low_logP (Gene EIF4A1) was 0.04 and the High_lfc (Gene EIF4A3) was -0.3. The High_logP (Gene EIF4A3) was 0.1, the Low_lfc (Gene EIF4A3) was 0.62 and the Low_logP (Gene EIF4A3) was 1.82. The High_lfc (Gene ELOA2) was 0.02, the High_logP (Gene ELOA2) was 0.19 and the Low_lfc (Gene ELOA2) was -0.02. The Low_logP (Gene ELOA2) was 0.17, the High_lfc (Gene ELOA3) was -0.12 and the High_logP (Gene ELOA3) was 0.33. The Low_lfc (Gene ELOA3) was -0.41, the Low_logP (Gene ELOA3) was 0.06 and the High_lfc (Gene ELOA3D) was -0.34. The High_logP (Gene ELOA3D) was 0.11, the Low_lfc (Gene ELOA3D) was -0.14 and the Low_logP (Gene ELOA3D) was 0.69. It also gave a High_lfc (Gene ELOA) of -0.54, a High_logP (Gene ELOA) of 0 and a Low_lfc (Gene ELOA) of 0.05. It also gave a Low_logP (Gene ELOA) of 0.65, a High_lfc (Gene ELOB) of -0.05 and a High_logP (Gene ELOB) of 0.33. The Low_lfc (Gene ELOB) was 0.22, the Low_logP (Gene ELOB) was 0.4 and the High_lfc (Gene ELOC) was -0.21. It also gave a High_logP (Gene ELOC) of 0.17, a Low_lfc (Gene ELOC) of 0.63 and a Low_logP (Gene ELOC) of 1.29. For the same compound, the High_lfc (Gene ENC1) was -0.27, the High_logP (Gene ENC1) was 0.19 and the Low_lfc (Gene ENC1) was -0.31. The Low_logP (Gene ENC1) was 0.09, the High_lfc (Gene EPHA4) was 0.01 and the High_logP (Gene EPHA4) was 0.19. It also gave a Low_lfc (Gene EPHA4) of -0.17, a Low_logP (Gene EPHA4) of 0.06 and a High_lfc (Gene ERCC8) of -0.19. The High_logP (Gene ERCC8) was 0.27, the Low_lfc (Gene ERCC8) was -0.63 and the Low_logP (Gene ERCC8) was 0.01. For the same compound, the High_lfc (Gene ESCO1) was 0.1, the High_logP (Gene ESCO1) was 0.14 and the Low_lfc (Gene ESCO1) was -0.14. The Low_logP (Gene ESCO1) was 0.11, the High_lfc (Gene FAM9A) was -0.28 and the High_logP (Gene FAM9A) was 0.03. It also gave a Low_lfc (Gene FAM9A) of -0.03, a Low_logP (Gene FAM9A) of 0.66 and a High_lfc (Gene FBXL2) of -0.01. The High_logP (Gene FBXL2) was 0.32, the Low_lfc (Gene FBXL2) was -0.67 and the Low_logP (Gene FBXL2) was 0.02. It also gave a High_lfc (Gene FBXL3) of 0.05, a High_logP (Gene FBXL3) of 0.1 and a Low_lfc (Gene FBXL3) of 0.28. The Low_logP (Gene FBXL3) was 0.58, the High_lfc (Gene FBXL4) was -0.08 and the High_logP (Gene FBXL4) was 0.06. It also gave a Low_lfc (Gene FBXL4) of 0.06, a Low_logP (Gene FBXL4) of 0.49 and a High_lfc (Gene FBXL5) of 0.03. For the same compound, the High_logP (Gene FBXL5) was 0.04, the Low_lfc (Gene FBXL5) was 0.05 and the Low_logP (Gene FBXL5) was 0.32. For the same compound, the High_lfc (Gene FBXL6) was 0.08, the High_logP (Gene FBXL6) was 0.54 and the Low_lfc (Gene FBXL6) was 0.07. For the same compound, the Low_logP (Gene FBXL6) was 0.24, the High_lfc (Gene FBXL7) was -0.35 and the High_logP (Gene FBXL7) was 0.03. It also gave a Low_lfc (Gene FBXL7) of -0.35, a Low_logP (Gene FBXL7) of 0.01 and a High_lfc (Gene FBXL8) of -0.11. For the same compound, the High_logP (Gene FBXL8) was 0.39, the Low_lfc (Gene FBXL8) was 0.2 and the Low_logP (Gene FBXL8) was 0.54. The High_lfc (Gene FBXL12) was 0.01, the High_logP (Gene FBXL12) was 0.22 and the Low_lfc (Gene FBXL12) was 0.06. The Low_logP (Gene FBXL12) was 0.38, the High_lfc (Gene FBXL13) was -0.18 and the High_logP (Gene FBXL13) was 0.02. The Low_lfc (Gene FBXL13) was -0.03, the Low_logP (Gene FBXL13) was 0.46 and the High_lfc (Gene FBXL14) was -0.12. The High_logP (Gene FBXL14) was 0.22, the Low_lfc (Gene FBXL14) was 0.15 and the Low_logP (Gene FBXL14) was 0.61. It also gave a High_lfc (Gene FBXL15) of 0.41, a High_logP (Gene FBXL15) of 0.56 and a Low_lfc (Gene FBXL15) of 0.18. For the same compound, the Low_logP (Gene FBXL15) was 0.28, the High_lfc (Gene FBXL16) was 0.12 and the High_logP (Gene FBXL16) was 0.12. The Low_lfc (Gene FBXL16) was -0.11, the Low_logP (Gene FBXL16) was 0.07 and the High_lfc (Gene FBXL17) was 0.03. The High_logP (Gene FBXL17) was 0.74, the Low_lfc (Gene FBXL17) was -0.02 and the Low_logP (Gene FBXL17) was 0.44. It also gave a High_lfc (Gene FBXL18) of 0.28 and a High_logP (Gene FBXL18) of 1.09.
